Structures can show the parent of a compound that is named as a salt.
Columns and labels:
Assay type in all cases: in vivo, human
[1] = system: patients with facial acne vulgaris; assay: Post-PDT erythema from patient journal (Phase II study)
Procedure: A clinical Phase II study involving 23 males and 20 females (age 18 years or more) with facial acne vulgaris (papulo-pustular acne and at least 15 inflammatory acne lesions on at least one side of the face) has been performed. Patients were randomized to receive either MAL cream on the face at a concentration of 160 mg/g (16% wt), 80 mg/g (8% wt) or 40 mg/g (4% wt). The cream was administered under occlusion. […] A light dose of 37 J/cm^2 using Photocure's Aktilite 128 LED light source was provided at a working distance between 5 and 8 cm. The average time to deliver said light dose was about 8 minutes. This information was derived from the journal kept by patients. […] There is a significant difference among the 6 groups in the duration of post PDT erythema (p=0.03). […] In fact, all patients in the standard PDT treatment group experienced post-PDT erythema.

[2] = system: patients with facial acne vulgaris; assay: Adverse events subsequent to light exposure (Phase II study)
Procedure: A clinical Phase II study involving 23 males and 20 females (age 18 years or more) with facial acne vulgaris (papulo-pustular acne and at least 15 inflammatory acne lesions on at least one side of the face) has been performed. Patients were randomized to receive either MAL cream on the face at a concentration of 160 mg/g (16% wt), 80 mg/g (8% wt) or 40 mg/g (4% wt). The cream was administered under occlusion. […] A light dose of 37 J/cm^2 using Photocure's Aktilite 128 LED light source was provided at a working distance between 5 and 8 cm. The average time to deliver said light dose was about 8 minutes. Safety was evaluated by medical questionnaire and adverse events, i.e., side effects, reporting. Additional data relating to the adverse events, i.e., side effects, observed subsequent to light exposure during the study are shown in the table below. For patients who received the standard PDT treatment, i.e., patients in the 3 h after MAL (160 mg/g) group, not only a larger number of adverse events were observed than for the patients in any of the other groups, but the adverse events were also more severe in nature, i.e., higher numbers of moderate and severe adverse events (AEs) were observed.

[3] = system: patients with facial acne vulgaris; assay: Pain during light exposure and post-PDT pain, visual analog scale (Phase II study); conditions: for Pain during light exposure, Mean: visual analog scale 0-100
Procedure: A clinical Phase II study involving 23 males and 20 females (age 18 years or more) with facial acne vulgaris (papulo-pustular acne and at least 15 inflammatory acne lesions on at least one side of the face) has been performed. Patients were randomized to receive either MAL cream on the face at a concentration of 160 mg/g (16% wt), 80 mg/g (8% wt) or 40 mg/g (4% wt). The cream was administered under occlusion. […] A light dose of 37 J/cm^2 using Photocure's Aktilite 128 LED light source was provided at a working distance between 5 and 8 cm. The average time to deliver said light dose was about 8 minutes. Safety was evaluated by medical questionnaire and adverse events, i.e., side effects, reporting. Mean pain during light exposure was evaluated by patients on a visual analog scale where 0=no pain and 100=worst possible pain.

[4] = 3 h, 160 mg/g (standard PDT), 7 patients
[5] = 160 mg/g 3 h and 80 mg/g 1.5 h groups together

COC(=O)CCC(=O)CN [MAL, methylaminolevulinate hydrochloride]
Mean duration of erythema (shortest) ([1]; 40 mg/g for 1 hour): 0.5 days | Mean duration of erythema (longest) ([1]; 160 mg/g for 3 hours): 14 days | Duration of post PDT erythema, Mean ([1]; MAL cream 40 mg/g, 1 h): 4 days | n: number of patients experiencing post-PDT erythema ([1]; MAL cream 40 mg/g, 1 h, 8 patients in group): 4 | Duration of post PDT erythema, Mean ([1]; MAL cream 40 mg/g, 1.5 h): 1.8 days | n: number of patients experiencing post-PDT erythema ([1]; MAL cream 40 mg/g, 1.5 h, 8 patients in group): 6 | n: number of patients experiencing post-PDT erythema ([1]; MAL cream 80 mg/g, 0.5 h, 6 patients in group): 0 | Duration of post PDT erythema, Mean ([1]; MAL cream 80 mg/g, 1 h): 2.1 days | n: number of patients experiencing post-PDT erythema ([1]; MAL cream 80 mg/g, 1 h, 8 patients in group): 5 | Duration of post PDT erythema, Mean ([1]; MAL cream 80 mg/g, 1.5 h): 3.7 days | n: number of patients experiencing post-PDT erythema ([1]; MAL cream 80 mg/g, 1.5 h, 6 patients in group): 3 | Duration of post PDT erythema, Mean ([1]; MAL cream 160 mg/g, 3 h (standard PDT)): 11.9 days | n: number of patients experiencing post-PDT erythema ([1]; MAL cream 160 mg/g, 3 h (standard PDT), 7 patients in group): 7 | Patients experiencing post-PDT erythema ([1]; standard PDT treatment group (160 mg/g, 3 h)): all patients | Mild AEs Per Pat ([2]; 0.5 h, 80 mg/g): 0.6 | Moderate AEs Per Pat ([2]; 0.5 h, 80 mg/g): 0 | Severe AEs Per Pat ([2]; 0.5 h, 80 mg/g): 0 | Total AEs Per Pat ([2]; 0.5 h, 80 mg/g): 0.667 | Mild AEs ([2]; 0.5 h, 80 mg/g, 6 patients): 4 | Moderate AEs ([2]; 0.5 h, 80 mg/g, 6 patients): 0 | Severe AEs ([2]; 0.5 h, 80 mg/g, 6 patients): 0 | Total AEs ([2]; 0.5 h, 80 mg/g, 6 patients): 4 | Mild AEs Per Pat ([2]; 1 h, 40 mg/g): 1.125 | Moderate AEs Per Pat ([2]; 1 h, 40 mg/g): 0 | Severe AEs Per Pat ([2]; 1 h, 40 mg/g): 0 | Total AEs Per Pat ([2]; 1 h, 40 mg/g): 1.125 | Mild AEs ([2]; 1 h, 40 mg/g, 8 patients): 9 | Moderate AEs ([2]; 1 h, 40 mg/g, 8 patients): 0 | Severe AEs ([2]; 1 h, 40 mg/g, 8 patients): 0 | Total AEs ([2]; 1 h, 40 mg/g, 8 patients): 9 | Mild AEs Per Pat ([2]; 1 h, 80 mg/g): 1.375 | Moderate AEs Per Pat ([2]; 1 h, 80 mg/g): 0 | Severe AEs Per Pat ([2]; 1 h, 80 mg/g): 0 | Total AEs Per Pat ([2]; 1 h, 80 mg/g): 1.375 | Mild AEs ([2]; 1 h, 80 mg/g, 8 patients): 11 | Moderate AEs ([2]; 1 h, 80 mg/g, 8 patients): 0 | Severe AEs ([2]; 1 h, 80 mg/g, 8 patients): 0 | Total AEs ([2]; 1 h, 80 mg/g, 8 patients): 11 | Mild AEs Per Pat ([2]; 1.5 h, 40 mg/g): 2 | Moderate AEs Per Pat ([2]; 1.5 h, 40 mg/g): 0.125 | Severe AEs Per Pat ([2]; 1.5 h, 40 mg/g): 0 | Total AEs Per Pat ([2]; 1.5 h, 40 mg/g): 2.125 | Mild AEs ([2]; 1.5 h, 40 mg/g, 8 patients): 16 | Moderate AEs ([2]; 1.5 h, 40 mg/g, 8 patients): 1 | Severe AEs ([2]; 1.5 h, 40 mg/g, 8 patients): 0 | Total AEs ([2]; 1.5 h, 40 mg/g, 8 patients): 17 | Mild AEs Per Pat ([2]; 1.5 h, 80 mg/g): 1.5 | Moderate AEs Per Pat ([2]; 1.5 h, 80 mg/g): 0.167 | Severe AEs Per Pat ([2]; 1.5 h, 80 mg/g): 0.167 | Total AEs Per Pat ([2]; 1.5 h, 80 mg/g): 1.833 | Mild AEs ([2]; 1.5 h, 80 mg/g, 6 patients): 9 | Moderate AEs ([2]; 1.5 h, 80 mg/g, 6 patients): 1 | Severe AEs ([2]; 1.5 h, 80 mg/g, 6 patients): 1 | Total AEs ([2]; 1.5 h, 80 mg/g, 6 patients): 11 | Mild AEs Per Pat ([2]; 3 h, 160 mg/g (standard PDT)): 2.14 | Moderate AEs Per Pat ([2]; 3 h, 160 mg/g (standard PDT)): 1 | Severe AEs Per Pat ([2]; 3 h, 160 mg/g (standard PDT)): 0.429 | Total AEs Per Pat ([2]; 3 h, 160 mg/g (standard PDT)): 3.571 | Mild AEs [2, 4]: 15 | Moderate AEs [2, 4]: 7 | Severe AEs [2, 4]: 3 | Total AEs [2, 4]: 25 | Cracked skin with bleeding ([2]; standard PDT treatment, 3 h after MAL (160 mg/g), did not occur with any other treatment modality): one patient | Patients in whom light delivery had to be ended because of pain [3, 5]: 2 patients | Patients in whom light delivery had to be interrupted because of pain [3, 5]: 2 patients | Patients experiencing post-PDT pain ([3]; 0.5 h after MAL (80 mg/g)): 1 out of 6 | Pain during light exposure, Mean ([3]; MAL cream 40 mg/g, 1 h before red light 37 J/cm^2): 2 | Pain during light exposure, Mean ([3]; MAL cream 40 mg/g, 1.5 h before red light 37 J/cm^2): 19 | Pain during light exposure, Mean ([3]; MAL cream 80 mg/g, 0.5 h before red light 37 J/cm^2): 1 | Pain during light exposure, Mean ([3]; MAL cream 80 mg/g, 1 h before red light 37 J/cm^2): 9 | Pain during light exposure, Mean ([3]; MAL cream 80 mg/g, 1.5 h before red light 37 J/cm^2): 32 | Pain during light exposure, Mean ([3]; MAL cream 160 mg/g, 3 h before red light 37 J/cm^2 (standard PDT)): 64 | Patients experiencing post-PDT pain ([3]; all other groups (40 mg/g 1 h and 1.5 h; 80 mg/g 1 h and 1.5 h)): zero | Patients experiencing post-PDT pain ([3]; standard PDT group (160 mg/g, 3 h)): 5 out of 7
